# Source: BindingDB's records for patent US10626112 (Ea Pharma, 2020)
# Molecular target: Transient receptor potential cation channel subfamily A member 1 (Homo sapiens, UniProt O75762)
# Test: Measurement of TRPA1 Antagonist Activity
# Description: The test substance was dissolved in dimethyl sulfoxide and serially diluted with an assay buffer containing 0.1% bovine serum albumin (1×HBSS, 20 mM HEPES, pH 7.2) to a 4.8-fold concentration of the evaluation concentration. Allylisothiocyanate, which is a known TRPA1 activator, was dissolved in dimethyl sulfoxide to 100 mM, and further diluted 5-fold (100 μM) of the final concentration, like the test substance.
# Sequence of Transient receptor potential cation channel subfamily A member 1 (O75762 whole entry): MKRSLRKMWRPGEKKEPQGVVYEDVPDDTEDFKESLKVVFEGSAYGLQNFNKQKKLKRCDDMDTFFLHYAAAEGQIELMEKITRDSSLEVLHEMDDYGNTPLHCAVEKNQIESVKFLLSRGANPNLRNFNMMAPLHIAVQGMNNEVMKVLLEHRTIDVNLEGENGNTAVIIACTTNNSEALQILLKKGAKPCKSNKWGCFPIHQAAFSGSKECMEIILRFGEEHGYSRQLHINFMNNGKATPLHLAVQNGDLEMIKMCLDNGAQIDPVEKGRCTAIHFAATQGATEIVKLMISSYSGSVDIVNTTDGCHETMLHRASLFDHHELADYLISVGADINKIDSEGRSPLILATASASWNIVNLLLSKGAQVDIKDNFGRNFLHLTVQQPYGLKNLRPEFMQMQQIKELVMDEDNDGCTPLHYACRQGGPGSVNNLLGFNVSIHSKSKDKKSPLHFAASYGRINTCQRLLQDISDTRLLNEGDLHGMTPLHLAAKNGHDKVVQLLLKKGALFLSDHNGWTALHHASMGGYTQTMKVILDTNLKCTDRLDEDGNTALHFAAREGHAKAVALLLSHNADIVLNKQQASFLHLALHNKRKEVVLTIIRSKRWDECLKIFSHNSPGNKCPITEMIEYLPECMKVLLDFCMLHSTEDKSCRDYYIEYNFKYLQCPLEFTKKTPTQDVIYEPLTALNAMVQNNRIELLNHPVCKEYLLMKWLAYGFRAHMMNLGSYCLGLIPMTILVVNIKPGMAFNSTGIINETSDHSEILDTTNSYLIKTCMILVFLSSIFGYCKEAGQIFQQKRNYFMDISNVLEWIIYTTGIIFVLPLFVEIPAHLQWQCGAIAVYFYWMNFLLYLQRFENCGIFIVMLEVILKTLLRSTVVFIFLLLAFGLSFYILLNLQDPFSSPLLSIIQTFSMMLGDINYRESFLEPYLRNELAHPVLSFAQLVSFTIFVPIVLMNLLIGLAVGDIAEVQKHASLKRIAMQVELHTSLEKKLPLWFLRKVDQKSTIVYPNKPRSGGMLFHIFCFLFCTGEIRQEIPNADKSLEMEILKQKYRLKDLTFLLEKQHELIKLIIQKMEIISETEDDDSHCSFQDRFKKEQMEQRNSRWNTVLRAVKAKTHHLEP
row,Structure (SMILES),IC50
1,"O=C(NCc1cccc(OCc2ccc(N3CCOCC3)nc2)c1)[C@@H]1CCCN1S(=O)(=O)c1cc2cc(F)ccc2o1 [US10626112, Example 22]",110 nM
2,"O=C(NCc1cccc(CSc2ccc(C(F)(F)F)cc2)c1)[C@@H]1CCCN1S(=O)(=O)c1cc2ccccc2o1 [US10626112, Example 299]",24 nM
3,"O=C(NCc1ccnc(-c2ccc(COCC(F)(F)F)nc2)c1)[C@@H]1CCCN1S(=O)(=O)c1cc2ccccc2o1 [US10626112, Example 331]",170 nM
4,"O=C(NCc1cc(-c2ccc(C(F)(F)F)cc2)ncn1)[C@@H]1CCCN1S(=O)(=O)c1cc2ccncc2o1 [US10626112, Example 347]",74 nM
5,"O=C(CN(Cc1ccccc1)S(=O)(=O)c1cc2cc(F)ccc2o1)NCc1cc(-c2ccc(C(F)(F)F)cn2)ccn1 [US10626112, Example 350]",630 nM
6,"O=C(CN(Cc1ncco1)S(=O)(=O)c1cc2cc(F)ccc2o1)NCc1cc(-c2ccc(C(F)(F)F)cn2)ccn1 [US10626112, Example 351]",990 nM
7,"O=C(CN(Cc1ccccc1)S(=O)(=O)c1cc2cc(F)ccc2o1)NCc1cc(-c2ccc(C(F)(F)F)cc2)ncn1 [US10626112, Example 352]",410 nM
8,"O=C(CN(Cc1ncco1)S(=O)(=O)c1cc2cc(F)ccc2o1)NCc1cc(-c2ccc(C(F)(F)F)cc2)ncn1 [US10626112, Example 354]",380 nM
9,"COCCN(CC(=O)NCc1cc(-c2ccc(C(F)(F)F)cn2)ccn1)S(=O)(=O)c1cc2cc(F)ccc2o1 [US10626112, Example 355]",100 nM
10,"CC(C)OCCN(CC(=O)NCc1cc(-c2ccc(C(F)(F)F)cn2)ccn1)S(=O)(=O)c1cc2cc(F)ccc2o1 [US10626112, Example 356]",190 nM

# More lines, now with the values ahead:
row,IC50,Structure (SMILES)
1,110 nM,"CC(C)OCCN(CC(=O)NCc1cc(-c2ccc(C(F)(F)F)cc2)ncn1)S(=O)(=O)c1cc2cc(F)ccc2o1 [US10626112, Example 358]"
2,470 nM,"O=C(CN(Cc1cnccn1)S(=O)(=O)c1cc2cc(F)ccc2o1)NCc1cc(-c2ccc(C(F)(F)F)cc2)ncn1 [US10626112, Example 361]"
3,410 nM,"CC(C)(C)OC[C@H](NS(=O)(=O)c1cc2cc(F)ccc2o1)C(=O)NCc1cc(-c2ccc(C(F)(F)F)cc2)ncn1 [US10626112, Example 415]"
4,190 nM,"O=C(CN(CC1CCNC1)S(=O)(=O)c1cc2cc(F)ccc2o1)NCc1cc(-c2ccc(C(F)(F)F)cc2)ncn1 (centres undefined) [US10626112, Example 425]"
